In ChEMBL document CHEMBL4507288 (2021):
Active and inactive are the calls of the source. The calls are words filed in the database; no cut-off is given here.

What was measured:
[1] = biological target: D(2) dopamine receptor (Homo sapiens, UniProt P14416); assay: GPCRScan assay: inhibition of D2; parameters: radioligand conc. used [nm] 0.4 – 1.0, parental cells stable fibroblast
[2] = biological target: Amyloid-beta precursor protein (Homo sapiens, UniProt P05067); assay: Aβ42 inhibition assay
[3] = biological target: Atypical kinase COQ8A, mitochondrial (Homo sapiens) (UniProt Q8NI60); conditions: Compound concentration 1000.0 nM
[4] = tested on: ALK tyrosine kinase receptor (Homo sapiens), Q9UM73 [C1156Y]; conditions: Compound concentration 1000.0 nM
[5] = biological target: Protein-tyrosine kinase 6 (Homo sapiens) (UniProt Q13882); conditions: Compound concentration 1000.0 nM
[6] = biological target: Cyclin-dependent kinase-like 1 (Homo sapiens) (UniProt Q00532); conditions: Compound concentration 1000.0 nM
[7] = biological target: Dual specificity protein kinase CLK3 (Homo sapiens) (UniProt P49761); conditions: Compound concentration 1000.0 nM
[8] = biological target: Macrophage colony-stimulating factor 1 receptor (Homo sapiens) (UniProt P07333); conditions: Compound concentration 1000.0 nM
[9] = biological target: Casein kinase I isoform alpha (Homo sapiens) (UniProt P48729); conditions: Compound concentration 1000.0 nM
[10] = biological target: Casein kinase I isoform epsilon (Homo sapiens) (UniProt P49674); conditions: Compound concentration 1000.0 nM
[11] = biological target: Serine/threonine-protein kinase 17A (Homo sapiens) (UniProt Q9UEE5); conditions: Compound concentration 1000.0 nM
Chain of Serine/threonine-protein kinase 17A (Homo sapiens) (Q9UEE5 whole entry): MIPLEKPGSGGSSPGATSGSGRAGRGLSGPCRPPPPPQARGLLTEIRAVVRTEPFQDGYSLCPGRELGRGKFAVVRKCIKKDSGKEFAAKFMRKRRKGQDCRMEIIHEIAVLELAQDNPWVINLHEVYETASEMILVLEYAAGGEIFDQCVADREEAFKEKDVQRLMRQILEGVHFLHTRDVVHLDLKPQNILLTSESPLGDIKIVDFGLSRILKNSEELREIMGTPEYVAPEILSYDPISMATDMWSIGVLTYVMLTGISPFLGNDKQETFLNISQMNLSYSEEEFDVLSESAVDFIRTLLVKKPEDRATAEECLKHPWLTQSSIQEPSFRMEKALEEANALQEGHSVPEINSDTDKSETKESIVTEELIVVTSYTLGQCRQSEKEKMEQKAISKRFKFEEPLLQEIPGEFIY

[12] = biological target: Dual specificity tyrosine-phosphorylation-regulated kinase 1A (Homo sapiens) (UniProt Q13627); conditions: Compound concentration 1000.0 nM
[13] = tested on: Epidermal growth factor receptor (Homo sapiens), P00533 [L861Q]; conditions: Compound concentration 1000.0 nM
[14] = biological target: Ephrin type-A receptor 5 (Homo sapiens) (UniProt P54756); conditions: Compound concentration 1000.0 nM
[15] = biological target: Receptor tyrosine-protein kinase erbB-3 (Homo sapiens) (UniProt P21860); conditions: Compound concentration 1000.0 nM
Chain of Receptor tyrosine-protein kinase erbB-3 (Homo sapiens) (P21860 whole entry): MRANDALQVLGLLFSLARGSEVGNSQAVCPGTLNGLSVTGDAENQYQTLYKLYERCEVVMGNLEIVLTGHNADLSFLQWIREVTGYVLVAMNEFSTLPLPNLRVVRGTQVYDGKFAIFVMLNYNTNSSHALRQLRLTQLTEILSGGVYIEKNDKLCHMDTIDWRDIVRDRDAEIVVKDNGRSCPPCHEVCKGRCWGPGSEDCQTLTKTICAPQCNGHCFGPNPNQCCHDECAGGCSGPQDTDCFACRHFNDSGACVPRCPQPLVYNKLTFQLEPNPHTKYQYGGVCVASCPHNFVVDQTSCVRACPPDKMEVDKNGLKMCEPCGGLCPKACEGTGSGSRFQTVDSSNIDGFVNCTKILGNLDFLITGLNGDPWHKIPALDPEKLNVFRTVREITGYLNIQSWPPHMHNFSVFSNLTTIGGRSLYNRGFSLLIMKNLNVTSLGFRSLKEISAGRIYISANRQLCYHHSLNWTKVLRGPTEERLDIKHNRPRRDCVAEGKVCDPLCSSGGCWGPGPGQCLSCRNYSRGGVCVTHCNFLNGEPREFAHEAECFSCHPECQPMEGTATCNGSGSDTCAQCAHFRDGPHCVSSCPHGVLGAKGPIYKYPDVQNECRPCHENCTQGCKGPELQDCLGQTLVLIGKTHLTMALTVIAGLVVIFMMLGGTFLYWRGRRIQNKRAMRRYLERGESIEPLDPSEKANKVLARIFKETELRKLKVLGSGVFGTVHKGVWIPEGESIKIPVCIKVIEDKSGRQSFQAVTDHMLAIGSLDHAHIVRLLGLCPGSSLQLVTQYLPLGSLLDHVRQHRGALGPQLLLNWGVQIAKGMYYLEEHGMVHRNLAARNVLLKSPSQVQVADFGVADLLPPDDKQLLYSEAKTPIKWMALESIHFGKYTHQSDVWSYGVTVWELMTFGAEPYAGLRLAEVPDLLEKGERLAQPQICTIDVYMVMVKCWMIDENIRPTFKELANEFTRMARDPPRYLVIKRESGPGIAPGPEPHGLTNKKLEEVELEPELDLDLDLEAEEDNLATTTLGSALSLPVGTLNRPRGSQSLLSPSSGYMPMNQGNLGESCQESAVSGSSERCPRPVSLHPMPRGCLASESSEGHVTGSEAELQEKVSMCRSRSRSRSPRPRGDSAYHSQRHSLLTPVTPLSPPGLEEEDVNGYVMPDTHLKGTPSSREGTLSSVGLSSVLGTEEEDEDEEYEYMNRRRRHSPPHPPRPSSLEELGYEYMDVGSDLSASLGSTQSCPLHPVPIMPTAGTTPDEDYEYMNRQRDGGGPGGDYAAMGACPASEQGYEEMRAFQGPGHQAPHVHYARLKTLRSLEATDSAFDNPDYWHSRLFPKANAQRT

[16] = tested on: Fibroblast growth factor receptor 3 (Homo sapiens), P22607 [G697C]; conditions: Compound concentration 1000.0 nM
[17] = tested on: Receptor-type tyrosine-protein kinase FLT3 (Homo sapiens), P36888 [UNDEFINED MUTATION]; conditions: Compound concentration 1000.0 nM
Chain of Receptor-type tyrosine-protein kinase FLT3 (Homo sapiens), P36888 [UNDEFINED MUTATION] (P36888 whole entry, looked up, change not shown): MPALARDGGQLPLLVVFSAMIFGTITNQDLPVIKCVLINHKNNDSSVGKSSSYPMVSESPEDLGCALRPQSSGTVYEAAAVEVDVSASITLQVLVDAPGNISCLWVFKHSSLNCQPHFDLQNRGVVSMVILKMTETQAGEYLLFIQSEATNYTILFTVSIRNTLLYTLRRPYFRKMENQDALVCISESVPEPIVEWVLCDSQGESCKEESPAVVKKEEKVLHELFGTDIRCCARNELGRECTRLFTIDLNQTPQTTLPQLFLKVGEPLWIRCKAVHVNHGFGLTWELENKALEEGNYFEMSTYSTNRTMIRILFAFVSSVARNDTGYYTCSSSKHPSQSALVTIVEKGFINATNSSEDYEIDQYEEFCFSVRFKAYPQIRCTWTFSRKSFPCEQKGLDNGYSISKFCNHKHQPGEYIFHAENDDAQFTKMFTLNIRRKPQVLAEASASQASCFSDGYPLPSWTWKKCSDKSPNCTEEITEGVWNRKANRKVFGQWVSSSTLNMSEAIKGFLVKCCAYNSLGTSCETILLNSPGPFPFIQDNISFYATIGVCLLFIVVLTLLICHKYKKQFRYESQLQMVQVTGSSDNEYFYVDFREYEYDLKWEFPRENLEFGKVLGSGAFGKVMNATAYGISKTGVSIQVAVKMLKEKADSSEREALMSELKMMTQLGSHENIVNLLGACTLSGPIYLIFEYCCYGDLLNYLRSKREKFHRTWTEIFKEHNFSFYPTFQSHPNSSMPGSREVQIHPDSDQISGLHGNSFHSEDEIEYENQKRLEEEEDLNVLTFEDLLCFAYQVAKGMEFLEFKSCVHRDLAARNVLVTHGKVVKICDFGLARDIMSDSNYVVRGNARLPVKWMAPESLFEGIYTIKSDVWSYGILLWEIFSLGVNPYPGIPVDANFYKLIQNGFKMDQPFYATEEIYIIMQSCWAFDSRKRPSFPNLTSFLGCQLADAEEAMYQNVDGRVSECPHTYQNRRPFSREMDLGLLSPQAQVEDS

[18] = biological target: Vascular endothelial growth factor receptor 3 (Homo sapiens) (UniProt P35916); conditions: Compound concentration 1000.0 nM
[19] = biological target: G protein-coupled receptor kinase 4 (Homo sapiens) (UniProt P32298); conditions: Compound concentration 1000.0 nM
[20] = biological target: Glycogen synthase kinase-3 alpha (Homo sapiens) (UniProt P49840); conditions: Compound concentration 1000.0 nM
[21] = biological target: Inhibitor of nuclear factor kappa-B kinase subunit epsilon (Homo sapiens) (UniProt Q14164); conditions: Compound concentration 1000.0 nM
[22] = biological target: Tyrosine-protein kinase JAK1 (Homo sapiens) (UniProt P23458); conditions: Compound concentration 1000.0 nM
[23] = biological target: Serine/threonine-protein kinase MAK (Homo sapiens) (UniProt P20794); conditions: Compound concentration 1000.0 nM
[24] = biological target: Microtubule-associated serine/threonine-protein kinase 1 (Homo sapiens) (UniProt Q9Y2H9); conditions: Compound concentration 1000.0 nM
[25] = biological target: Dual specificity mitogen-activated protein kinase kinase 2 (Homo sapiens) (UniProt P36507); conditions: Compound concentration 1000.0 nM
[26] = biological target: Misshapen-like kinase 1 (Homo sapiens) (UniProt Q8N4C8); conditions: Compound concentration 1000.0 nM
[27] = biological target: Dual specificity mitogen-activated protein kinase kinase 7 (Homo sapiens) (UniProt O14733); conditions: Compound concentration 1000.0 nM
[28] = biological target: Serine/threonine-protein kinase 3 (Homo sapiens) (UniProt Q13188); conditions: Compound concentration 1000.0 nM
[29] = biological target: Serine/threonine-protein kinase Nek7 (Homo sapiens) (UniProt Q8TDX7); conditions: Compound concentration 1000.0 nM
[30] = biological target: Cyclin-dependent kinase 18 (Homo sapiens) (UniProt Q07002); conditions: Compound concentration 1000.0 nM
[31] = biological target: Platelet-derived growth factor receptor alpha (Homo sapiens) (UniProt P16234); conditions: Compound concentration 1000.0 nM
[32] = tested on: Phosphatidylinositol 4,5-bisphosphate 3-kinase catalytic subunit alpha isoform (Homo sapiens), P42336 [M1043I]; conditions: Compound concentration 1000.0 nM
[33] = biological target: Phosphatidylinositol 4,5-bisphosphate 3-kinase catalytic subunit delta isoform (Homo sapiens) (UniProt O00329); conditions: Compound concentration 1000.0 nM
Chain of Phosphatidylinositol 4,5-bisphosphate 3-kinase catalytic subunit delta isoform (Homo sapiens) (O00329 whole entry, canonical isoform): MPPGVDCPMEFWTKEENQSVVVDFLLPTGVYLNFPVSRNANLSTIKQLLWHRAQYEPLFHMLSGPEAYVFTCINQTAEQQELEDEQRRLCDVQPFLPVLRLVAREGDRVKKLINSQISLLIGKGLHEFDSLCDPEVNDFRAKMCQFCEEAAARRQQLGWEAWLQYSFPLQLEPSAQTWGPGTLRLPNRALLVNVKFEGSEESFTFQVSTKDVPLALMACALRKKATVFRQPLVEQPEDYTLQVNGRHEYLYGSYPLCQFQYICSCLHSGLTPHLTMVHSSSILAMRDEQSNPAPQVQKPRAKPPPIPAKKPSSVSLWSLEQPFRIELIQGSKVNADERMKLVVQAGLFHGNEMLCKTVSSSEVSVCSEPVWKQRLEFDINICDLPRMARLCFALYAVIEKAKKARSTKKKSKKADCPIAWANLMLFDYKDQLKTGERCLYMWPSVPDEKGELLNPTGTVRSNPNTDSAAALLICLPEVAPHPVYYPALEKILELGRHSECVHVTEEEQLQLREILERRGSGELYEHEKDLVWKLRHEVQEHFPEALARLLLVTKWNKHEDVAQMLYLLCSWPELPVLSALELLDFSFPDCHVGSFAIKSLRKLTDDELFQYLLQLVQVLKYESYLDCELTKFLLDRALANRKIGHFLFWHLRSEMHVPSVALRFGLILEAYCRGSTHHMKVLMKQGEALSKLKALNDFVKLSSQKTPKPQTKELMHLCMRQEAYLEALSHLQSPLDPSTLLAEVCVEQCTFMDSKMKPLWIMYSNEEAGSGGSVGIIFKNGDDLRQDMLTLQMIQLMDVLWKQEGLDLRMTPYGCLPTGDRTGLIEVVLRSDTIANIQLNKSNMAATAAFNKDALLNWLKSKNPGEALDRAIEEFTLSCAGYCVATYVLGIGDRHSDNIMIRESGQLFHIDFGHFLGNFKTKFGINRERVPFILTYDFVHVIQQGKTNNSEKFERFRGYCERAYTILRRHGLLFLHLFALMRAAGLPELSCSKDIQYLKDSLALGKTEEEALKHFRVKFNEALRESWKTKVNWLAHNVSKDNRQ

[34] = biological target: 1-phosphatidylinositol 3-phosphate 5-kinase (Homo sapiens) (UniProt Q9Y2I7); conditions: Compound concentration 1000.0 nM
[35] = biological target: Interferon-induced, double-stranded RNA-activated protein kinase (Homo sapiens) (UniProt P19525); conditions: Compound concentration 1000.0 nM
[36] = biological target: Ribosomal protein S6 kinase alpha-5 (Homo sapiens) (UniProt O75582); conditions: Compound concentration 1000.0 nM
[37] = biological target: Ribosomal protein S6 kinase alpha-1 (Homo sapiens) (UniProt Q15418); conditions: Compound concentration 1000.0 nM
[38] = biological target: Uncharacterized serine/threonine-protein kinase SBK3 (Homo sapiens) (UniProt P0C264); conditions: Compound concentration 1000.0 nM
[39] = biological target: Serine/threonine-protein kinase SIK2 (Homo sapiens) (UniProt Q9H0K1); conditions: Compound concentration 1000.0 nM
[40] = biological target: STE20-like serine/threonine-protein kinase (Homo sapiens) (UniProt Q9H2G2); conditions: Compound concentration 1000.0 nM
[41] = biological target: Serine/threonine-protein kinase 36 (Homo sapiens) (UniProt Q9NRP7); conditions: Compound concentration 1000.0 nM
[42] = biological target: Serine/threonine-protein kinase TBK1 (Homo sapiens) (UniProt Q9UHD2); conditions: Compound concentration 1000.0 nM
[43] = biological target: Serine/threonine-protein kinase tousled-like 2 (Homo sapiens) (UniProt Q86UE8); conditions: Compound concentration 1000.0 nM
[44] = biological target: Activated CDC42 kinase 1 (Homo sapiens) (UniProt Q07912); conditions: Compound concentration 1000.0 nM
Chain of Activated CDC42 kinase 1 (Homo sapiens) (Q07912 whole entry, looked up): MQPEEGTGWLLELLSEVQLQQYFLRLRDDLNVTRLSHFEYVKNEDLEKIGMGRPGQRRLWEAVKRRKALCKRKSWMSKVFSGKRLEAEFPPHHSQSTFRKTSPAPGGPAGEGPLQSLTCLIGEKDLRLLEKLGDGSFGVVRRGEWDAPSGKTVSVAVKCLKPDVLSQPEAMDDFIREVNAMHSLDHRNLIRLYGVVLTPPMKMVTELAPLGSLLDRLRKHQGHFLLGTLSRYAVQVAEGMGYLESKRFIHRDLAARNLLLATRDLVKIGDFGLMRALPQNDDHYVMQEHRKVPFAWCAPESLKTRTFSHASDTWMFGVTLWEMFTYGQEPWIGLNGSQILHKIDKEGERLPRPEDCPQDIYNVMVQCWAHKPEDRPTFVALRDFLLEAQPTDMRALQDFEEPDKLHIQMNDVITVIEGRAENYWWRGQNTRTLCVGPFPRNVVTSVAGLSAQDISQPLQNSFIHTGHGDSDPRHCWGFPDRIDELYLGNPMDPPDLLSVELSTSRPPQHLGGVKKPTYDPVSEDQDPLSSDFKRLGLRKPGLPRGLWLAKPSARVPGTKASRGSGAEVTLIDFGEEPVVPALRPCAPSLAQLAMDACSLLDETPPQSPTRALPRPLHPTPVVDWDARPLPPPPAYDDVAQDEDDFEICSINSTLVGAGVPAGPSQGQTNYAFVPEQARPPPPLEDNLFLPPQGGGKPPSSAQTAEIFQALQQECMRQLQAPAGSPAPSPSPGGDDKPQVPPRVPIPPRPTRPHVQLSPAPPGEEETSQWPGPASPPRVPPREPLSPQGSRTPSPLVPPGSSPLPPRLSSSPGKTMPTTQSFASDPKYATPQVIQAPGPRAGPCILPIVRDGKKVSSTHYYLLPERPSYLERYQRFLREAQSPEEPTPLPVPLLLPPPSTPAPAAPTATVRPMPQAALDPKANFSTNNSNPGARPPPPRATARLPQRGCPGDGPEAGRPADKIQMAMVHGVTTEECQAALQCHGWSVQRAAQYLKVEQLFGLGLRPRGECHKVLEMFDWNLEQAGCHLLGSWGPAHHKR

[45] = biological target: Testis-specific serine/threonine-protein kinase 3 (Homo sapiens) (UniProt Q96PN8); conditions: Compound concentration 1000.0 nM
Chain of Testis-specific serine/threonine-protein kinase 3 (Homo sapiens) (Q96PN8 whole entry): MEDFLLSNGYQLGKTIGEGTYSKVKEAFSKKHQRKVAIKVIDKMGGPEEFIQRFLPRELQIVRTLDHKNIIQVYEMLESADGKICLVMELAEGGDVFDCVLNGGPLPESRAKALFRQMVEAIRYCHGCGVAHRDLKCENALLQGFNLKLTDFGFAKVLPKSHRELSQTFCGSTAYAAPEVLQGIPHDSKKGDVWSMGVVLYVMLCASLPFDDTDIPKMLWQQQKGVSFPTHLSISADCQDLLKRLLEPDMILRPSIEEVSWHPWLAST

For CC(C)(C)OC(=O)N1CCCC1CNC1CCC(c2cc(F)ccc2F)(S(=O)(=O)c2ccc(Cl)cc2)CC1 (stereo not given) [GSI-NC], the Ki [1] was 1220 nM.
O=S(=O)(NC1CCC(c2cc(F)ccc2F)(S(=O)(=O)c2ccc(Cl)cc2)CC1)C(F)(F)F (stereo not given) [MRK-560] was tested, and the IC50 [2] was < 0.5 nM (active), the residual activity [3] was 99% and the residual activity [4] was 100%. The residual activity [5] was 95%, the residual activity [6] was 100% and the residual activity [7] was 86%. The residual activity [8] was 100%, the residual activity [9] was 100% and the residual activity [10] was 85%. It also gave a residual activity [11] of 86%, a residual activity [12] of 78% and a residual activity [13] of 100%. For the same molecule, the residual activity [14] was 100%, the residual activity [15] was 93% and the residual activity [16] was 100%. For the same molecule, the residual activity [17] was 100%, the residual activity [18] was 100% and the residual activity [19] was 100%. The residual activity [20] was 87%, the residual activity [21] was 0% and the residual activity [22] was 70%. For the same molecule, the residual activity [23] was 100%, the residual activity [24] was 100% and the residual activity [25] was 100%. For the same molecule, the residual activity [26] was 100%, the residual activity [27] was 100% and the residual activity [28] was 100%. It also gave a residual activity [29] of 100%, a residual activity [30] of 100% and a residual activity [31] of 100%. The residual activity [32] was 100%, the residual activity [33] was 100% and the residual activity [34] was 60%. The residual activity [35] was 87%, the residual activity [36] was 94% and the residual activity [37] was 90%. The residual activity [38] was 93%, the residual activity [39] was 100% and the residual activity [40] was 100%. The residual activity [41] was 100%, the residual activity [42] was 100% and the residual activity [43] was 100%. The residual activity [44] was 96% and the residual activity [45] was 88%.
